Results from paper PMC3280214, “Structure Based Discovery of Small Molecules to Regulate the Activity of Human Insulin Degrading Enzyme” (PLoS ONE, 2012).

Target: T1, double mutant IDE (Gln363Ala, His332Ala) (Homo sapiens, UniProt P14735, H332A/Q363A)
T1 construct: made in house; host or cells: E. coli (BL21 inferred, as for the wild type)
T1 sequence (P14735 1-1019 H332A/Q363A): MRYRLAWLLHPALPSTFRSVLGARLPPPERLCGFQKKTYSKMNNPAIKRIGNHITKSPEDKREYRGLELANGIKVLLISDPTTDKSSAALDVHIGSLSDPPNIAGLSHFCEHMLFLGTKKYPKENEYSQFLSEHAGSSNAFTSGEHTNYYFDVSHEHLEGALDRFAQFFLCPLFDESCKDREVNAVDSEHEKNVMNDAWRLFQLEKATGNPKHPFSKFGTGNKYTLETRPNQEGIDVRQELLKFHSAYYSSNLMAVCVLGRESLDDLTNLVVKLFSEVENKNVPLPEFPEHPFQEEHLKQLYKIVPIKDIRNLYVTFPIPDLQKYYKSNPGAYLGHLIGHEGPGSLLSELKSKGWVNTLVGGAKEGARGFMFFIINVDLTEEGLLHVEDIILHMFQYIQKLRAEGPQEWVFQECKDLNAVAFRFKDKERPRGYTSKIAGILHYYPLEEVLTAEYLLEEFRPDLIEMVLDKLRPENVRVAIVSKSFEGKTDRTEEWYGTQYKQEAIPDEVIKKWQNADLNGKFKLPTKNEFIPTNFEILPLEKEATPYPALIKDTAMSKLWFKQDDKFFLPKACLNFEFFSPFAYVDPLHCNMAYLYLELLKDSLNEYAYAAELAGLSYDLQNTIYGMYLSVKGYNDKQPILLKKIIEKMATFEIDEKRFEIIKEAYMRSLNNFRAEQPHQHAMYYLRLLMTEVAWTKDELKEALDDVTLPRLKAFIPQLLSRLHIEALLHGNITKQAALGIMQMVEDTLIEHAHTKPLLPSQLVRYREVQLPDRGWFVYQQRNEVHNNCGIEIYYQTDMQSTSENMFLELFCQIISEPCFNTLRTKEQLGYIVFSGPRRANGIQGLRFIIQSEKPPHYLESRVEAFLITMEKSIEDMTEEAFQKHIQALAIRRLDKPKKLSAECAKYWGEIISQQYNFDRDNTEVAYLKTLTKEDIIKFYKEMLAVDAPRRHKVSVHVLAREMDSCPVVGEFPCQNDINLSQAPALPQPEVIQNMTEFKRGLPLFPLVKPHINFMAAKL
Experiment: FITC-insulin-mAb degradation by double mutant IDE (Gln363Ala, His332Ala)
Type: biochemical
Conditions: 20 µM D10
Description: Since D10 has been found as the strongest activator of IDE towards the proteolysis of insulin, we analyzed the binding site of the compound D10 for the further analysis. According to the computational results, D10 binds to Gln363 at the IDE exosite and His332 (Fig. 1D). We carried out site-directed mutagenesis by replacing these amino acids into Ala in order to verify that D10 indeed binds to this region via these amino acids. We first mutated Gln363 to Ala and then expressed and purified mutant protein through nickel resin. The effect of D10 on the proteolytic activity of mutant IDE (Gln363Ala) was measured towards FITC-insulin-mAb degradation. […] The activation was about 49-fold in the presence of D10 with wild type IDE (Fig. 2B). Although mutant IDE activity was less responsive to D10 compound compared to wild type IDE, it appeared as if D10 were interacting with IDE through […] and could enhance the activity of mutant IDE. […]
The utility of these novel compounds were tested on degradation of insulin by IDE. […] The proteolysis of insulin by IDE was monitored by measuring the changes in fluorescence, where the reaction was carried out with 100 nM of FITC- insulin-mAb and IDE (80 ng) in 100 µl KH2PO4 buffer at a pH of 7.3. […] The increase in fluorescence was monitored by using Fluoroskan Ascent FL microplate reader (Thermo).

Cc1nn(-c2ccccc2)c2nc(-c3cccc([N+](=O)[O-])c3)n3c4ccccc4nc3c2c1=O [Compound D10]
binding to exosite of double mutant IDE: could not bind to IDE exosite
